Patent US20080248077A1, “Formulation” (ASTRAZENECA AB, priority 2005, published 2008)
Converted amounts (≈) assume the structure as drawn. Read-outs that look alike come from different tables or passages of the source.

Experiment: water solubility of anastrozole
Format: physicochemical

For `CC(C)(C#N)c1cc(Cn2cncn2)cc(C(C)(C)C#N)c1` [anastrozole, Anastrozole], the solubility (at 25° C., read-out: water solubility) was 530 µg/mL (≈ 1810 µM) and the solubility (read-out: aqueous solubility) was 530 µg/mL (≈ 1810 µM).
